Source: the supplement of paper PMC10331698
± gives the standard deviation of the averaged measurements.

Legend:
Assay in all cases: level (log10 ratio to DMSO vehicle control); higher = higher biomarker level / cell amount than vehicle control
Settings in all cases: in DMSO
[1] = compound: O=C(O)C(F)(F)OC(F)(F)C(F)(F)OC(F)(F)C(F)(F)C(F)(F)C(F)(F)F [Perfluoro-3,6-dioxadecanoic acid]
Protocol: (§1)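 BioMAP Diversity Plus panel of 12 human primary cell co-culture systems (3C, 4H, LPS, SAg, BT, BF4T, BE3C, CASM3C, HDF3CGF, KF3CT, MyoF, Mphg). Compounds were added 1 h before stimulation and left for 24 h (MyoF 48 h; BT 72 h for soluble read-outs or 6 d for IgG). Biomarkers were read by ELISA, cytotoxicity by SRB, PBMC viability and proliferation by Alamar Blue. Each well value was divided by the mean of 8 DMSO control wells on the same plate and log10 transformed; duplicate blinded samples were tested at 4 concentrations.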

[2] = compound: O=C(O)C(F)(F)C(F)(F)C(F)(F)C(F)(F)C(F)(F)C(F)(F)C(F)(F)C(F)(F)C(F)(F)C(F)(F)C(F)(F)C(F)(F)F [Perfluorotridecanoic acid]
Protocol: as §1

Azathioprine = compound: Cn1cnc([N+](=O)[O-])c1Sc1ncnc2[nH]cnc12 [Azathioprine]
Protocol: as §1

[3] = compound: O=C(O)C(F)(F)C(F)(F)C(F)(F)C(F)(F)C(F)(F)C(F)(F)C(F)(F)C(F)(F)C(F)(F)C(F)(F)C(F)(F)C(F)(F)C(F)(F)F [Perfluorotetradecanoic acid]
Protocol: as §1

Perfluorooctanamidine = compound: N=C(N)C(F)(F)C(F)(F)C(F)(F)C(F)(F)C(F)(F)C(F)(F)C(F)(F)F [Perfluorooctanamidine]
Protocol: as §1

[4] = compound: O=S(=O)(O)C(F)(F)C(F)(F)C(F)(F)C(F)(F)F [Perfluorobutanesulfonic acid]
Protocol: as §1

Row | Test System | level (log10) ([1]; 6700 nM) | level (log10) ([1]; 20000 nM) | level (log10) ([1]; 60000 nM) | level (log10) ([2]; 1500 nM) | level (log10) ([2]; 4400 nM) | level (log10) ([2]; 13000 nM) | level (log10) ([2]; 40000 nM) | level (log10) (Azathioprine; 1400 nM) | level (log10) (Azathioprine; 4200 nM) | level (log10) (Azathioprine; 13000 nM) | level (log10) (Azathioprine; 38000 nM) | level (log10) ([3]; 6700 nM) | level (log10) ([3]; 20000 nM) | level (log10) (Perfluorooctanamidine; 6700 nM) | level (log10) (Perfluorooctanamidine; 20000 nM) | level (log10) (Perfluorooctanamidine; 60000 nM) | level (log10) ([4]; 6700 nM) | level (log10) ([4]; 20000 nM) | level (log10) ([4]; 60000 nM)
1 | lMphg:M-CSF | -0.027 ± 0.045 | -0.0395 ± 0.0035 | -0.0475 ± 0.026 | -0.005 ± 0.0057 | -0.006 ± 0.016 | 0.002 ± 0.0099 | -0.011 ± 0.0099 | 0.004 ± 0.018 | -0.0045 ± 0.0021 | -0.032 ± 0.011 | -0.0885 ± 0.0064 | -0.0065 ± 0.03 | -0.0175 ± 0.015 | -0.0155 ± 0.016 | -0.0015 ± 0.0021 | -0.001 | 0.021 ± 0.028 | -0.0045 ± 0.074 | -0.0045 ± 0.07
2 | HDF3CGF:CXCL8/IL-8 | -0.0065 ± 0.005 | -0.001 ± 0.0028 | 0.001 ± 0.016 | 0.007 | 0.004 ± 0.0014 | 0.012 ± 0.0014 | 0.0165 ± 0.015 | 0.006 ± 0.014 | -0.0155 ± 0.021 | -0.009 ± 0.0028 | 0.0045 ± 0.029 | -0.0045 ± 0.012 | 0.008 ± 0.0085 | 0.006 ± 0.0014 | 0.0135 ± 0.005 | 0.007 | 0.0025 ± 0.0078 | -0.002 ± 0.0057 | -0.0025 ± 0.0021
3 | MyoF:Collagen IV | 0.0055 ± 0.013 | 0.0345 ± 0.019 | 0.235 ± 0.011 | -0.0095 ± 0.043 | 0.002 ± 0.018 | 0.004 ± 0.04 | 0.064 ± 0.013 | 0.008 ± 0.0042 | 0.0065 ± 0.0092 | -0.013 ± 0.013 | 0.02 ± 0.016 | -0.002 ± 0.0071 | 0.023 ± 0.016 | 0.0195 ± 0.03 | 0.044 ± 0.018 | 0.117 | 0.04 ± 0.0057 | 0.0055 ± 0.033 | 0.016 ± 0.013
4 | 3C:CD106/VCAM-1 | 0.0005 ± 0.013 | -0.0035 ± 0.019 | -0.0135 ± 0.021 | 0.0125 ± 0.012 | -0.0055 ± 0.016 | -0.0185 ± 0.019 | -0.0165 ± 0.018 | 0.006 ± 0.017 | -0.0165 ± 0.0078 | -0.0245 ± 0.022 | -0.0595 ± 0.036 | -0.014 ± 0.016 | -0.0155 ± 0.0078 | -0.017 ± 0.028 | -0.037 ± 0.031 | -0.088 | -0.0215 ± 0.015 | -0.016 ± 0.025 | -0.006 ± 0.013
5 | KF3CT:IL-1alpha | 0.022 ± 0.0057 | -0.0495 ± 0.013 | -0.0295 ± 0.005 | -0.025 ± 0.0099 | -0.0435 ± 0.0035 | -0.074 ± 0.018 | -0.1075 ± 0.00071 | -0.015 ± 0.0099 | 0.01 ± 0.013 | 0.0115 ± 0.005 | 0.035 ± 0.0042 | -0.0135 ± 0.081 | -0.0235 ± 0.054 | -0.005 ± 0.04 | 0.0115 ± 0.011 | 0.03 | -0.009 ± 0.0042 | -0.0085 ± 0.0078 | -0.006 ± 0.025
6 | BE3C:uPA | 0.006 ± 0.025 | -0.0045 ± 0.025 | -0.003 ± 0.011 | -0.0005 ± 0.00071 | 0.008 ± 0.0099 | -0.01 ± 0.02 | -0.0085 ± 0.046 | -0.0025 ± 0.016 | 0 ± 0.013 | -0.0115 ± 0.019 | -0.041 ± 0.016 | -0.0075 ± 0.05 | -0.0085 ± 0.056 | -0.008 ± 0.011 | -0.0095 ± 0.0078 | 0.004 | -0.0035 ± 0.0021 | -0.007 ± 0.0042 | -0.005 ± 0.0099
7 | lMphg:IL-1alpha | -0.0105 ± 0.056 | -0.021 ± 0.011 | 0.021 ± 0.011 | -0.0415 ± 0.0035 | -0.0175 ± 0.0078 | -0.0105 ± 0.052 | -0.0015 ± 0.0092 | 0.0185 ± 0.067 | 0.0045 ± 0.0078 | -0.0015 ± 0.023 | -0.005 ± 0.057 | 0.021 ± 0.068 | 0.004 ± 0.05 | -0.011 ± 0.024 | -0.004 ± 0.044 | 0.027 | 0.0315 ± 0.016 | -0.0055 ± 0.056 | 0.034 ± 0.031
8 | 3C:CCL2/MCP-1 | 0.002 ± 0.0099 | 0.013 ± 0.0057 | 0.0195 ± 0.023 | 0.0135 ± 0.0078 | -0.021 ± 0.0014 | -0.001 ± 0.0085 | 0.0035 ± 0.0035 | 0.0095 ± 0.0064 | -0.006 | 0.009 ± 0.0014 | -0.0165 ± 0.015 | 0.0125 ± 0.012 | 0.0085 ± 0.018 | 0.0185 ± 0.012 | 0.0085 ± 0.011 | 0.062 | 0.0025 ± 0.05 | 0.0015 ± 0.021 | 0.0355 ± 0.043
9 | BE3C:Keratin 8/18 | -0.0075 ± 0.013 | -0.0135 ± 0.026 | 0.027 ± 0.0042 | 0.0095 ± 0.0078 | 0.016 ± 0.0042 | -0.0035 ± 0.0021 | 0.005 ± 0.0014 | -0.009 ± 0.033 | 0.012 ± 0.014 | -0.02 ± 0.047 | -0.0095 ± 0.021 | -0.004 ± 0.03 | -0.011 ± 0.045 | -0.0165 ± 0.0021 | -0.014 ± 0.0057 | 0.007 | 0.003 ± 0.0014 | -0.0035 ± 0.00071 | -0.0165 ± 0.0078
10 | KF3CT:uPA | -0.0095 ± 0.0064 | -0.0065 ± 0.03 | 0.0095 ± 0.005 | 0.0005 ± 0.018 | -0.003 ± 0.011 | 0.0035 ± 0.015 | -0.0035 ± 0.011 | 0.011 ± 0.0028 | 0.015 ± 0.016 | -0.003 ± 0.0071 | -0.0025 ± 0.0078 | -0.014 ± 0.038 | 0.0115 ± 0.032 | 0.0015 ± 0.0021 | 0.0165 ± 0.0035 | 0.01 | -0.0275 ± 0.029 | -0.0215 ± 0.00071 | -0.0035 ± 0.00071
11 | CASM3C:Proliferation | 0.0135 ± 0.0035 | -0.0165 ± 0.029 | 0.0015 ± 0.018 | 0.02 ± 0.016 | -0.0055 ± 0.036 | 0.0085 ± 0.026 | -0.013 ± 0.0014 | -0.0225 ± 0.037 | -0.0225 ± 0.005 | -0.0785 ± 0.012 | -0.147 ± 0.028 | 0.0075 ± 0.028 | -0.018 ± 0.0057 | 0.0185 ± 0.0078 | 0.0085 ± 0.0035 | -0.062 | -0.0455 ± 0.044 | -0.0405 ± 0.013 | -0.019 ± 0.017
12 | CASM3C:CD142/Tissue Factor | 0.001 | -0.008 ± 0.0042 | 0.0105 ± 0.052 | -0.004 ± 0.064 | 0.002 ± 0.024 | -0.0025 ± 0.018 | -0.012 ± 0.034 | -0.0115 ± 0.015 | -0.026 ± 0.034 | -0.0345 ± 0.021 | -0.0295 ± 0.025 | -0.005 ± 0.038 | -0.002 ± 0.041 | -0.022 ± 0.024 | -0.033 ± 0.0014 | 0.042 | -0.0085 ± 0.0035 | -0.0115 ± 0.018 | 0.0135 ± 0.012
13 | KF3CT:CXCL10/IP-10 | -0.022 ± 0.0042 | -0.0335 ± 0.011 | -0.113 ± 0.028 | -0.009 ± 0.0071 | -0.011 ± 0.0028 | -0.015 ± 0.017 | -0.06 ± 0.044 | 0.0135 ± 0.00071 | -0.0035 ± 0.0021 | -0.0105 ± 0.011 | -0.0035 ± 0.019 | 0.0065 ± 0.016 | -0.0165 ± 0.016 | 0.012 ± 0.042 | 0.0025 ± 0.04 | 0.04 | 0.0305 ± 0.025 | 0.0385 ± 0.028 | 0.0405 ± 0.019
14 | MyoF:TIMP-1 | 0.044 ± 0.03 | 0.174 ± 0.031 | 0.164 ± 0.0014 | 0.004 ± 0.0071 | 0.001 ± 0.011 | 0.025 ± 0.0028 | 0.0325 ± 0.0064 | -0.0225 ± 0.04 | -0.056 ± 0.057 | 0.013 ± 0.068 | 0.016 ± 0.071 | 0.0075 ± 0.049 | 0.0345 ± 0.013 | 0.0185 ± 0.011 | 0.041 | 0.123 | 0.012 ± 0.014 | 0.009 ± 0.0085 | 0.0205 ± 0.00071
15 | lMphg:CD62E/E-Selectin | 0.0095 ± 0.016 | -0.0035 ± 0.037 | 0.0135 ± 0.015 | -0.038 ± 0.0028 | -0.045 ± 0.0014 | -0.0395 ± 0.029 | -0.007 ± 0.0071 | -0.037 ± 0.045 | -0.031 ± 0.048 | -0.064 ± 0.0085 | -0.148 ± 0.051 | 0.0125 ± 0.03 | -0.006 ± 0.044 | 0.0065 ± 0.042 | 0.0655 ± 0.015 | 0.049 | 0.0405 ± 0.0035 | 0.041 ± 0.044 | 0.0215 ± 0.046
